Reference: ChEMBL document CHEMBL5303573, “Mapping human microbiome drug metabolism by gut bacteria and their genes” (Nature, 2019)

How the values were obtained:
[1] = The drug is tested on Collinsella intestinalis strain: DSM13280 for biotransformation. The drug concentrations were measured before and after a 12-h incubation by liquid-chromatography-coupled mass spectrometry (LC–MS); settings: 2 µM
[2] = The drug is tested on Bacteroides coprophilus strain: DSM18228 for biotransformation. The drug concentrations were measured before and after a 12-h incubation by liquid-chromatography-coupled mass spectrometry (LC–MS); settings: 2 µM
[3] = The drug is tested on Bacteroides ovatus strain: ATCC8483 for biotransformation. The drug concentrations were measured before and after a 12-h incubation by liquid-chromatography-coupled mass spectrometry (LC–MS); settings: 2 µM
[4] = The drug is tested on Bacteroides sp. WH2 strain: WH2 for biotransformation. The drug concentrations were measured before and after a 12-h incubation by liquid-chromatography-coupled mass spectrometry (LC–MS); settings: bacteroides sp. wh2, 12 h, 2 µM
[5] = The drug is tested on Bacteroides xylanisolvens strain: DSM18836 for biotransformation. The drug concentrations were measured before and after a 12-h incubation by liquid-chromatography-coupled mass spectrometry (LC–MS); settings: 2 µM
[6] = The drug is tested on Anaerotruncus colihominis strain: DSM17241 for biotransformation. The drug concentrations were measured before and after a 12-h incubation by liquid-chromatography-coupled mass spectrometry (LC–MS); settings: 2 µM
[7] = The drug is tested on Blautia hansenii strain: DSM20583 for biotransformation. The drug concentrations were measured before and after a 12-h incubation by liquid-chromatography-coupled mass spectrometry (LC–MS); settings: 2 µM
[8] = The drug is tested on Blautia luti strain: DSM14534 for biotransformation. The drug concentrations were measured before and after a 12-h incubation by liquid-chromatography-coupled mass spectrometry (LC–MS); format: ADME; design: dose 2 uM, timepoint 0 vs 12 hours; settings: 2 µM
[9] = The drug is tested on Clostridium ramosum strain: DSM1402 for biotransformation. The drug concentrations were measured before and after a 12-h incubation by liquid-chromatography-coupled mass spectrometry (LC–MS); settings: thomasclavelia ramosa, 2 µM
[10] = The drug is tested on Dorea formicigenerans strain: ATCC27755 for biotransformation. The drug concentrations were measured before and after a 12-h incubation by liquid-chromatography-coupled mass spectrometry (LC–MS); settings: 2 µM
[11] = The drug is tested on Eubacterium ventriosum strain: ATCC27560 for biotransformation. The drug concentrations were measured before and after a 12-h incubation by liquid-chromatography-coupled mass spectrometry (LC–MS); format: ADME; design: dose 2 uM, timepoint 0 vs 12 hours; settings: 2 µM
[12] = The drug is tested on Subdoligranulum variabile strain: DSM15176 for biotransformation. The drug concentrations were measured before and after a 12-h incubation by liquid-chromatography-coupled mass spectrometry (LC–MS); settings: 2 µM
[13] = The drug is tested on Edwardsiella tarda strain: ATCC23685 for biotransformation. The drug concentrations were measured before and after a 12-h incubation by liquid-chromatography-coupled mass spectrometry (LC–MS); settings: 2 µM
[14] = The drug is tested on Escherichia coli strain: BW25113 for biotransformation. The drug concentrations were measured before and after a 12-h incubation by liquid-chromatography-coupled mass spectrometry (LC–MS); settings: 2 µM
[15] = bacteroides fragilis, 12 h, 2 µM
Description: The drug is tested on Bacteroides fragilis strain: 3397 (T10) for biotransformation. The drug concentrations were measured before and after a 12-h incubation by liquid-chromatography-coupled mass spectrometry (LC–MS)

[16] = bacteroides fragilis, 12 h, 2 µM; remark: listed apart in the source
Description: The drug is tested on Bacteroides fragilis strain: DS-208 for biotransformation. The drug concentrations were measured before and after a 12-h incubation by liquid-chromatography-coupled mass spectrometry (LC–MS)

[17] = bacteroides thetaiotaomicron, 12 h, 2 µM
Description: The drug is tested on Bacteroides thetaiotaomicron strain: VPI-5482 for biotransformation. The drug concentrations were measured before and after a 12-h incubation by liquid-chromatography-coupled mass spectrometry (LC–MS)

[18] = bacteroides thetaiotaomicron, 12 h, 2 µM; remark: listed apart in the source
Description: The drug is tested on Bacteroides thetaiotaomicron strain: 3731 for biotransformation. The drug concentrations were measured before and after a 12-h incubation by liquid-chromatography-coupled mass spectrometry (LC–MS)

[19] = The drug is tested on Alistipes indistinctus strain: DSM22520 for biotransformation. The drug concentrations were measured before and after a 12-h incubation by liquid-chromatography-coupled mass spectrometry (LC–MS); settings: 2 µM
[20] = The drug is tested on Bacteroides pectinophilus strain: ATCC43243 for biotransformation. The drug concentrations were measured before and after a 12-h incubation by liquid-chromatography-coupled mass spectrometry (LC–MS); settings: 2 µM

| Bacterial Biotransformation [1] | Bacterial Biotransformation [3] | Bacterial Biotransformation [4] | Bacterial Biotransformation [5] | Bacterial Biotransformation [6] | Bacterial Biotransformation [7] | Bacterial Biotransformation [9] | Bacterial Biotransformation [10] | Bacterial Biotransformation [11] | Bacterial Biotransformation [12] | Bacterial Biotransformation [13] | Bacterial Biotransformation [14] | Bacterial Biotransformation [16] | Bacterial Biotransformation [17] | Bacterial Biotransformation [18] | Compound | Bacterial Biotransformation [2] | Bacterial Biotransformation [8] | Bacterial Biotransformation [15] | Bacterial Biotransformation [19] | Bacterial Biotransformation [20] |
| --- | --- | --- | --- | --- | --- | --- | --- | --- | --- | --- | --- | --- | --- | --- | --- | --- | --- | --- | --- | --- |
| Compound NOT metabolized | Compound NOT metabolized | Compound NOT metabolized | Compound NOT metabolized | Compound NOT metabolized | Compound NOT metabolized | Compound NOT metabolized | Compound NOT metabolized | Compound NOT metabolized | Compound NOT metabolized | Compound NOT metabolized | Compound NOT metabolized | Compound NOT metabolized | Compound NOT metabolized | Compound NOT metabolized | CC[C@@]1(O)C(=O)OCc2c1cc1n(c2=O)Cc2cc3c(CN(C)C)c(O)ccc3nc2-1 [TOPOTECAN] | Compound NOT metabolized | Compound NOT metabolized | Compound NOT metabolized |  |  |
| Compound NOT metabolized | Compound NOT metabolized | Compound NOT metabolized | Compound NOT metabolized | Compound NOT metabolized | Compound NOT metabolized | Compound NOT metabolized | Compound NOT metabolized | Compound NOT metabolized | Compound NOT metabolized | Compound NOT metabolized | Compound NOT metabolized | Compound NOT metabolized | Compound NOT metabolized | Compound NOT metabolized | COc1cc2nc(N(C)CCCNC(=O)C3CCCO3)nc(N)c2cc1OC (stereo unspecified) [ALFUZOSIN] | Compound NOT metabolized | Compound NOT metabolized |  |  | Compound NOT metabolized |
| Compound NOT metabolized | Compound NOT metabolized | Compound NOT metabolized | Compound NOT metabolized | Compound NOT metabolized | Compound NOT metabolized | Compound NOT metabolized | Compound NOT metabolized | Compound NOT metabolized | Compound NOT metabolized | Compound NOT metabolized |  | Compound NOT metabolized | Compound NOT metabolized | Compound NOT metabolized | C#C[C@]1(OC(C)=O)CC[C@H]2[C@@H]3CCC4=C[C@@H](OC(C)=O)CC[C@@H]4[C@H]3CC[C@@]21C [ETHYNODIOL DIACETATE] | Compound NOT metabolized |  | Compound NOT metabolized |  | Compound NOT metabolized |
| Compound NOT metabolized | Compound NOT metabolized | Compound NOT metabolized | Compound NOT metabolized | Compound NOT metabolized | Compound metabolized |  | Compound NOT metabolized | Compound NOT metabolized | Compound NOT metabolized | Compound NOT metabolized | Compound NOT metabolized | Compound NOT metabolized | Compound NOT metabolized |  | OC(CCN1CCCCC1)(c1ccccc1)C1CCCCC1 (stereo unspecified) [TRIHEXYPHENIDYL] |  | Compound NOT metabolized | Compound NOT metabolized |  | Compound NOT metabolized |
| Compound NOT metabolized | Compound NOT metabolized | Compound NOT metabolized | Compound NOT metabolized | Compound NOT metabolized | Compound NOT metabolized |  | Compound NOT metabolized | Compound NOT metabolized | Compound NOT metabolized | Compound NOT metabolized |  | Compound NOT metabolized | Compound NOT metabolized | Compound NOT metabolized | COc1cc2nc(N3CCN(C(=O)C4CCCO4)CC3)nc(N)c2cc1OC (stereo unspecified) [TERAZOSIN] | Compound NOT metabolized | Compound NOT metabolized | Compound NOT metabolized |  | Compound NOT metabolized |

| Compound | Bacterial Biotransformation [1] | Bacterial Biotransformation [3] | Bacterial Biotransformation [4] | Bacterial Biotransformation [5] | Bacterial Biotransformation [6] | Bacterial Biotransformation [7] | Bacterial Biotransformation [9] | Bacterial Biotransformation [10] | Bacterial Biotransformation [11] | Bacterial Biotransformation [12] | Bacterial Biotransformation [13] | Bacterial Biotransformation [14] | Bacterial Biotransformation [16] | Bacterial Biotransformation [17] | Bacterial Biotransformation [18] | Bacterial Biotransformation [2] | Bacterial Biotransformation [8] | Bacterial Biotransformation [15] | Bacterial Biotransformation [19] | Bacterial Biotransformation [20] |
| --- | --- | --- | --- | --- | --- | --- | --- | --- | --- | --- | --- | --- | --- | --- | --- | --- | --- | --- | --- | --- |
| COc1ccc(C(CN(C)C)C2(O)CCCCC2)cc1 (stereo unspecified) [VENLAFAXINE] | Compound NOT metabolized | Compound NOT metabolized | Compound NOT metabolized | Compound NOT metabolized | Compound NOT metabolized |  | Compound NOT metabolized | Compound NOT metabolized | Compound NOT metabolized | Compound NOT metabolized | Compound NOT metabolized | Compound NOT metabolized | Compound NOT metabolized | Compound NOT metabolized | Compound NOT metabolized | Compound NOT metabolized | Compound NOT metabolized | Compound NOT metabolized | Compound NOT metabolized | Compound NOT metabolized |
| O=P(O)(O)O.c1ccc(CN(CC2=NCCN2)c2ccccc2)cc1 [ANTAZOLINE PHOSPHATE] | Compound NOT metabolized | Compound NOT metabolized | Compound NOT metabolized | Compound NOT metabolized | Compound NOT metabolized | Compound NOT metabolized |  | Compound NOT metabolized | Compound NOT metabolized | Compound NOT metabolized | Compound NOT metabolized |  | Compound NOT metabolized | Compound NOT metabolized |  | Compound NOT metabolized | Compound NOT metabolized | Compound NOT metabolized |  | Compound NOT metabolized |
| CC(C)(C)NC[C@H](O)COc1nsnc1N1CCOCC1.O=C(O)/C=C\C(=O)O [TIMOLOL MALEATE] | Compound NOT metabolized | Compound NOT metabolized | Compound NOT metabolized | Compound NOT metabolized | Compound NOT metabolized | Compound NOT metabolized |  | Compound NOT metabolized | Compound NOT metabolized | Compound NOT metabolized | Compound NOT metabolized |  | Compound NOT metabolized | Compound NOT metabolized | Compound NOT metabolized | Compound NOT metabolized | Compound NOT metabolized | Compound NOT metabolized |  | Compound NOT metabolized |
| O=C1CC2(CCCC2)CC(=O)N1CCCCN1CCN(c2ncccn2)CC1 [BUSPIRONE] | Compound NOT metabolized | Compound NOT metabolized | Compound NOT metabolized | Compound NOT metabolized | Compound NOT metabolized | Compound NOT metabolized | Compound NOT metabolized | Compound NOT metabolized | Compound NOT metabolized | Compound NOT metabolized | Compound NOT metabolized |  | Compound NOT metabolized | Compound NOT metabolized | Compound NOT metabolized | Compound NOT metabolized | Compound NOT metabolized | Compound NOT metabolized |  | Compound NOT metabolized |
